For 20 molecules, T/C results are on record in PubChem BioAssay AID330 (DTP/NCI, 2004).

Several values for one entry are separate records, joined by “and”; a condition that tells them apart may be missing. Equal values may be shown once. Inconclusive results and toxic doses are left out.

This assay has as its system P388 leukemia ip, CD2F1 mice, survival T/C. Briefly: NCI In Vivo Anticancer Drug Screen. Data for tumor model P388 Leukemia (intraperitoneal) in CD2F1 (CDF1) mice. As to conditions: endpoint: median survival time, higher = longer survival. The essentials: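 Mice carrying the transplanted tumor received test compound or vehicle. Survival was recorded in each group, and the value is the treated-group measurement divided by that of the vehicle-treated control group.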

Setting [1] is: dose: 100.0 mg/kg/injection, schedule: Q04DX003 (ip), vehicle: Klucel (hydroxypropylcellulose) (HPC).
The mark [2] stands for this setting: dose: 200.0 mg/kg/injection, schedule: Q04DX003 (ip), vehicle: Klucel (hydroxypropylcellulose) (HPC).
[3] abbreviates: dose: 400.0 mg/kg/injection, schedule: Q04DX003 (ip), vehicle: Klucel (hydroxypropylcellulose) (HPC).
Setting [4] is: dose: 100.0 mg/kg/injection, schedule: Q04DX003 (ip), vehicle: saline.
The mark [5] stands for this setting: dose: 200.0 mg/kg/injection, schedule: Q04DX003 (ip), vehicle: saline.
Where [6] appears, read: dose: 50.0 mg/kg/injection, schedule: Q01DX005 (ip), vehicle: saline with Tween-80.

For the molecule `CCCCn1nnc2cc(-c3c(N)nc(N)nc3CC)ccc21`, the T/C is, setting by setting: (dose: 50.0 mg/kg/injection, schedule: Q01DX005 (ip), vehicle: Klucel (hydroxypropylcellulose) (HPC)) 87 % of control; (dose: 100.0 mg/kg/injection, schedule: Q01DX005 (ip), vehicle: Klucel (hydroxypropylcellulose) (HPC)) 89 % of control; (dose: 200.0 mg/kg/injection, schedule: Q01DX005 (ip), vehicle: Klucel (hydroxypropylcellulose) (HPC)) 89 % of control.

On to `Brc1cc(-c2ccccc2)on1`, for which the T/C reads like this: under setting [1], 108 % of control; under setting [2], 103 % of control; under setting [3], 105 % of control.

Consider `O=NN(CCBr)C(=O)Nc1ccccc1`, for which the T/C (dose: 6.0 mg/kg/injection, schedule: Q01DX009 (ip), vehicle: saline with Tween-80) is 154 % of control; the T/C (dose: 12.0 mg/kg/injection, schedule: Q01DX009 (ip), vehicle: saline with Tween-80) was 177 % of control; the T/C (dose: 25.0 mg/kg/injection, schedule: Q01DX009 (ip), vehicle: saline with Tween-80) was 177 % of control; the T/C (dose: 37.5 mg/kg/injection, schedule: Q01DX009 (ip), vehicle: saline with Tween-80) is 175 % of control; the T/C (dose: 66.0 mg/kg/injection, schedule: Q04DX003 (ip), vehicle: saline) is 118 % of control; the T/C under setting [4] is 109 % of control. In addition, the T/C (dose: 150.0 mg/kg/injection, schedule: Q04DX003 (ip), vehicle: saline) was 100 % of control.

Regarding `CCOC(CCC(CO)CO)OCC`, the T/C was 108 % of control (dose: 50.0 mg/kg/injection, schedule: Q01DX009 (ip), vehicle: suspension in saline); 112 % of control (dose: 100.0 mg/kg/injection, schedule: Q01DX009 (ip), vehicle: suspension in saline); 96 % of control (dose: 200.0 mg/kg/injection, schedule: Q01DX009 (ip), vehicle: suspension in saline).

As for `O=C(O)CCCC12CCC(CCCC(=O)O)(CC1)CC2`, the T/C under setting [1] was 99 % of control, the T/C under setting [2] is 97 % of control and the T/C under setting [3] was 104 % of control.

`C/C(=N\NC(=S)N1CCC(c2ccccc2)CC1)c1ccccn1`: the T/C under setting [4] is 100 % of control and the T/C under setting [5] was 101 % of control.

For the molecule `O=C1NNC(=O)C1C(=O)Nc1ccccc1`, the T/C runs as follows: (dose: 0.93 mg/kg/injection, schedule: Q01DX005 (ip), vehicle: Klucel (hydroxypropylcellulose) (HPC)) 100 % of control; (dose: 1.87 mg/kg/injection, schedule: Q01DX005 (ip), vehicle: Klucel (hydroxypropylcellulose) (HPC)) 103 % of control; (dose: 3.75 mg/kg/injection, schedule: Q01DX005 (ip), vehicle: Klucel (hydroxypropylcellulose) (HPC)) 100 % of control; (dose: 15.0 mg/kg/injection, schedule: Q01DX005 (ip), vehicle: Klucel (hydroxypropylcellulose) (HPC)) 113 % of control.

As to `COC(=O)C1C(COS(C)(=O)=O)ON2CCC(OC)(OC)C12` (stereo unspecified), the T/C reads like this: (dose: 50.0 mg/kg/injection, schedule: Q01DX005 (ip), vehicle: saline) 95 % of control; (dose: 100.0 mg/kg/injection, schedule: Q01DX005 (ip), vehicle: saline) 98 % of control; (dose: 200.0 mg/kg/injection, schedule: Q01DX005 (ip), vehicle: saline) 95 % of control.

On to `C/C=C/C[P+](Cc1ccccc1)(c1ccccc1)c1ccccc1`, for which the T/C runs as follows: (dose: 0.78 mg/kg/injection, schedule: Q01DX009 (ip), vehicle: saline) 105 % of control; (dose: 1.56 mg/kg/injection, schedule: Q01DX009 (ip), vehicle: saline) 113 % of control; (dose: 3.13 mg/kg/injection, schedule: Q01DX009 (ip), vehicle: saline) 107 % of control.

Regarding `CC(C)(O)/C=C/C(=O)C(C)(O)C1C(O)CC2(C)C3CC=C4C(CC(=O)C(O)C4(C)C)C3(C)C(=O)CC12C` (stereo unspecified), the T/C (dose: 0.5 mg/kg/injection, schedule: Q01DX009 (ip), vehicle: saline + alcohol) was 119 % of control; the T/C (dose: 1.0 mg/kg/injection, schedule: Q01DX009 (ip), vehicle: saline + alcohol) was 119 % of control; the T/C (dose: 2.0 mg/kg/injection, schedule: Q01DX009 (ip), vehicle: saline + alcohol) is 121 % of control and 120 % of control.

`Cc1cccc(NCc2ccncc2)n1`: the T/C was 92 % of control (dose: 6.25 mg/kg/injection, schedule: Q01DX005 (ip), vehicle: saline with Tween-80); 102 % of control (dose: 12.5 mg/kg/injection, schedule: Q01DX005 (ip), vehicle: saline with Tween-80); 100 % of control (dose: 25.0 mg/kg/injection, schedule: Q01DX005 (ip), vehicle: saline with Tween-80); 100 % of control under setting [6].

In the case of `C/C(=C\Cc1cc(O)c(C)cc1O)CC/C=C(\C)Cc1cc(C)co1`, the T/C (dose: 4.0 mg/kg/injection, schedule: Q01DX009 (ip), vehicle: Klucel (hydroxypropylcellulose) (HPC)) was 93 % of control; the T/C (dose: 8.0 mg/kg/injection, schedule: Q01DX009 (ip), vehicle: Klucel (hydroxypropylcellulose) (HPC)) is 101 % of control; the T/C (dose: 16.0 mg/kg/injection, schedule: Q01DX009 (ip), vehicle: Klucel (hydroxypropylcellulose) (HPC)) was 101 % of control; the T/C (dose: 32.0 mg/kg/injection, schedule: Q01DX009 (ip), vehicle: Klucel (hydroxypropylcellulose) (HPC)) is 108 % of control.

Regarding `CS(=O)(=O)OCCCCCCCCCCCCCC1C=CCC1` (stereo unspecified), the T/C by setting is: under setting [4], 99 % of control; under setting [5], 103 % of control; (dose: 400.0 mg/kg/injection, schedule: Q04DX003 (ip), vehicle: saline) 99 % of control.

For the molecule `O=C1CSC(c2ccccc2Cl)N1N1C(=O)CSC1c1ccccc1Cl` (stereo unspecified), the T/C runs as follows: (dose: 60.0 mg/kg/injection, schedule: Q01DX005 (ip), vehicle: Klucel (hydroxypropylcellulose) (HPC)) 100 % of control; (dose: 120.0 mg/kg/injection, schedule: Q01DX005 (ip), vehicle: Klucel (hydroxypropylcellulose) (HPC)) 93 % of control; (dose: 240.0 mg/kg/injection, schedule: Q01DX005 (ip), vehicle: Klucel (hydroxypropylcellulose) (HPC)) 98 % of control.

Turning to `CC(NNC(=S)N1CC2CCC(CC2)C1)c1cc2ccccc2cn1` (stereo unspecified), the T/C was 114 % of control under setting [6]; 112 % of control (dose: 100.0 mg/kg/injection, schedule: Q01DX005 (ip), vehicle: saline with Tween-80); 121 % of control (dose: 200.0 mg/kg/injection, schedule: Q01DX005 (ip), vehicle: saline with Tween-80).

As for `COc1ccc(C)cc1NC(=S)C#N`, the T/C (dose: 60.0 mg/kg/injection, schedule: Q01DX005 (ip), vehicle: saline with Tween-80) is 98 % of control and the T/C (dose: 120.0 mg/kg/injection, schedule: Q01DX005 (ip), vehicle: saline with Tween-80) was 106 % of control.

In the case of `CCCCCCCCOC(=O)Nc1ccc(OCC)cc1`, the T/C by setting is: (dose: 0.75 mg/kg/injection, schedule: Q01DX009 (ip), vehicle: saline with Tween-80) 92 % of control; (dose: 1.5 mg/kg/injection, schedule: Q01DX009 (ip), vehicle: saline with Tween-80) 97 % of control; (dose: 3.0 mg/kg/injection, schedule: Q01DX009 (ip), vehicle: saline with Tween-80) 104 % of control.

In the case of `N=c1c2ccn(C3OC(CO)C(O)C3O)c2ncn1N` (stereo unspecified), the T/C reads like this: (dose: 6.25 mg/kg/injection, schedule: Q01DX009 (ip), vehicle: water) 117 % of control; (dose: 50.0 mg/kg/injection, schedule: Q01DX009 (ip), vehicle: water) 121 % of control.

Take `O=NN(CCF)C(=O)NC1CCS(=O)(=O)CC1`: the T/C (dose: 1.25 mg/kg/injection, schedule: Q04DX003 (ip), vehicle: saline) is 177 % of control; the T/C (dose: 2.5 mg/kg/injection, schedule: Q01DX009 (ip), vehicle: saline) was 220 % of control; the T/C (dose: 2.5 mg/kg/injection, schedule: Q04DX003 (ip), vehicle: saline) was 250 % of control; the T/C (dose: 5.0 mg/kg/injection, schedule: Q01DX009 (ip), vehicle: saline) is 300 % of control; the T/C (dose: 5.0 mg/kg/injection, schedule: Q04DX003 (ip), vehicle: saline with Tween-80) is 240 % of control; the T/C (dose: 5.0 mg/kg/injection, schedule: Q04DX003 (ip), vehicle: saline) is 272 % of control. The T/C is 280 % of control (dose: 6.6 mg/kg/injection, schedule: Q04DX003 (ip), vehicle: saline with Tween-80); 300 % of control (dose: 10.0 mg/kg/injection, schedule: Q01DX009 (ip), vehicle: saline); 272 % of control and 285 % of control (dose: 10.0 mg/kg/injection, schedule: Q04DX003 (ip), vehicle: saline with Tween-80); 285 % of control (dose: 15.0 mg/kg/injection, schedule: Q04DX003 (ip), vehicle: saline with Tween-80).

Take `COC(=O)c1ncn(C)c1O`: the T/C (dose: 60.0 mg/kg/injection, schedule: Q01DX005 (ip), vehicle: water) was 103 % of control; the T/C (dose: 120.0 mg/kg/injection, schedule: Q01DX005 (ip), vehicle: water) was 113 % of control; the T/C (dose: 240.0 mg/kg/injection, schedule: Q01DX005 (ip), vehicle: water) was 104 % of control.
